Measured values reported in PubChem BioAssay AID179 (DTP/NCI, 2004).
Calls of active or inactive are those of the source.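 How the source made its calls: active means compounds giving half or more protection of infected cells from virus-caused growth loss, again on retest; inactive means the rest.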

System: CEM cells HIV-1 protection, formazan growth assay
Assay: NCI AIDS Antiviral Assay
Settings: for IC50: measured here: growth of uninfected CEM cells
Outline: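 CEM (human) cells, HIV-1 infected vs uninfected, 5-point dosing, formazan growth read-out. Retest threshold 50% protection.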

Structure (SMILES)	EC50 [µM]	IC50 [µM]	outcome
CCCCCCCC1c2cc3[nH]c(cc4nc(cc5[nH]c(cc(n2)[C@@]1(C)CC(=O)N(C)C)c(C)c5CCC(=O)O)C(CCC(=O)O)=C4C)cc3C (stereo partly specified)	> 200	7.59	–
CCCCCCCCCCCC(=O)OC(COC(N)=O)COc1ccc(Cl)cc1 (stereo unspecified)	> 12.3	> 12.3	–
COC(=O)c1ccc(SSc2ccc(C(=O)OC)cc2[N+](=O)[O-])c([N+](=O)[O-])c1	–	–	inactive
Cc1cc(C)c2c(c1)sc1n[nH]c(=S)n12	> 63.1	> 63.1	–
COc1ccc(C(=C(C#N)C#N)c2ccc(OC)cc2)cc1	–	–	inactive
O=[N+]([O-])c1cnc(-c2ccc(F)cc2)n1CCO	> 200	> 200	–
COC1C(O)C(n2ccc(=O)[nH]c2=O)OC1[C@@H](O[C@H]1OC(C(=O)NC2CCCCNC2=O)=CC(O)C1O)C(N)=O (stereo partly specified)	–	–	inactive
COc1ccccc1NC(=O)C(/C=N/C(=S)NCCNc1ccc(OC)c(OC)c1)=C(\C)O	> 200	51.3	–
N=C(N)C1CN(CCCCCCCCCCN2CC(C(=N)N)C(=O)NC2=O)C(=O)NC1=O (stereo unspecified)	> 200	> 200	–
CN(NC(=O)/C(=C/c1ccc2c(c1)OCO2)NC(=O)c1ccccc1)c1ccnc2cc(Cl)ccc12	> 200	10.5	–
CC[C@]1(Cc2ccc(OC)c(OC)c2)[C@@H]2C[C@@H](C3OCCO3)ON2O[C@H](OC2CCCC2(c2ccccc2)c2ccccc2)[C@@H]1OC(C)=O (stereo partly specified)	> 200	21.9	–
COc1cc(-c2c(C)c(C)nc(OC)c2C#N)cc(OC)c1OC	22.9	> 100	–
C[C@H](N)C(=O)N[C@@H]1[C@H]2C(=C(O)C[C@@H](O)[C@@H]2O)C(=O)O[C@@H]1C	–	–	inactive
CC(C)c1cccc(C(C)C)c1NC(=S)Nc1ccccc1	–	–	inactive
N=C1OC(CN2CCN(c3ccccc3)CC2)CN1C(=O)Nc1ccccc1 (stereo unspecified)	> 200	> 200	–
CN(c1ccccc1)c1c(-c2ccccc2)c(=O)oc2c1ccc1occc12	–	–	inactive

Structure (SMILES)	EC50 [µM]	IC50 [µM]	outcome
CCCCN(CCCC)CCCCNc1c(C)cnc2cc(Cl)ccc12	> 26.9	9.33	–
C=CCN(CC=C)Cn1c(=S)sc2ccccc21	> 200	141	–
CCCCOC(=O)C1OC12CCCCC2 (stereo unspecified)	> 200	151	–
Clc1ccc(CN2COc3c(ccc4cccnc34)C2)c(Cl)c1	> 200	1.45	–
N.N.N.N.N.N#Cc1nn[n-]n1.[Cl-].[Co+3]	> 813	> 813	–
O=C(NC(C(F)(F)F)(C(F)(F)F)P(=O)(Cc1ccccc1)Cc1ccccc1)C(C(F)(F)F)C(F)(F)F	–	–	inactive
CCOC(=O)C1=C(C)C2C=C(c3cccs3)CC(c3ccc(Cl)cc3)=C2OC1=O (stereo unspecified)	> 200	91.2	–
CCN(CC)CCNc1ccc(Cl)cc1N	> 200	39.8	–
CC(CCC(=O)O)C1CCC2C3C(O)CC4CC(O)CCC4(C)C3CC(O)C12C (stereo unspecified) (tested in a mixture with another compound)	> 200	> 200	–
CC(NC(=O)C1CCCN1C(=O)OCc1ccccc1)C(=O)O (stereo unspecified)	> 776	> 776	–
COc1cc2c3cc1Oc1c(OC)c(OC)cc4c1C(Cc1ccc(cc1)Oc1cc(ccc1O)CC3N(C)CC2)N(C)CC4 (stereo unspecified)	> 22.4	> 22.4	inactive
CNc1nc(=O)c(C#N)c(-c2ccc(C)cc2)s1	166	> 200	–
COCc1cn(C2C=CC(CO)O2)c(=O)[nH]c1=O (stereo unspecified)	17.4	123	–
COc1cc(C2C(Cl)C(=O)N2NC(=O)Cc2ccccc2)ccc1O (stereo unspecified)	> 72.4	> 72.4	–
Nc1cc(N)c(N=Nc2ccc(/C=C\c3ccc(N=Nc4c(N)cc(N)cc4C(=O)O)cc3S(=O)(=O)O)c(S(=O)(=O)O)c2)c(C(=O)O)c1.[Zn+2]	> 30.2	23.4	–
